# Results: US20240293392A1, “INHIBITOR COMPOUNDS” (NeoPhore Limited, priority 2021, published 2024)
# Columns and labels:
# [1] = target: T1, recombinant N-terminal MLH1 (residues 15-340) (Homo sapiens, UniProt P40692); assay: Fluorescence Polarisation Assay for MLH1; type: binding; conditions: fluorescence polarisation probe displacement; 100 nM N-terminal MLH1, 5 nM probe compound
# T1 construct: recombinant N-terminal MLH1 (residues 15-340)
# T1 sequence (P40692 15-340): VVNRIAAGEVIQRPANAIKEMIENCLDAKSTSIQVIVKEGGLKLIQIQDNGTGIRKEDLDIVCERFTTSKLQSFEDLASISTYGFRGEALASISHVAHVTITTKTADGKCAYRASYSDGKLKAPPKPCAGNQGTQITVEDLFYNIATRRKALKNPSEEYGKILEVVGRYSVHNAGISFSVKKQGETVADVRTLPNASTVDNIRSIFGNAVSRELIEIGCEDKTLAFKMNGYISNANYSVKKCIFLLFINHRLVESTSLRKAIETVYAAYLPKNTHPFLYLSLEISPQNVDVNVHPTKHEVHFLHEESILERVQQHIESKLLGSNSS
# Description: Fluorescence Polarisation Assay for MLH1
# Test compounds, as 10 mM DMSO stocks, were dispensed into a 384-well Low Flange Black Flat Bottom Polystyrene Non-binding Surface plate (Corning®, item number 3575) using a Labcyte Echo acoustic liquid handler. Test compounds were added to wells in columns 1-22 whilst DMSO was added to wells in columns 23 and 24 in order to normalise the plate. 20 μL of a 2× solution (200 nM) of recombinant N-terminal MLH1 (residues 15-340) in assay buffer (25 mM HEPES, pH 7.5, 250 mM NaCl, 10 mM MgCl2, 0.01% Triton X-100, 5 mM dithiothreitol) was added to all wells in columns 1-23 and 20 μL assay buffer was added to all wells in column 24 using an E1-ClipTip pipette (ThermoFisher). Plates were centrifuged for 1 minute at 250×g and were incubated at room temperature for 30 minutes prior to the addition of 20 μL of 2× (10 nM) 5-((5-(4-((2-(2,4-dihydroxy-5-isopropylbenzoyl)isoindolin-5-yl)methyl)piperazin-1-yl)pentyl)carbamoyl)-2-(6-(dimethylamino)-3-(dimethyliminio)-3H-xanthen-9-yl)benzoate in assay buffer (prepared from a 1 mM DMSO stock) with an E1-ClipTip pipette (ThermoFisher). The final concentration of N-terminal MLH1 was 100 nM and the final concentration of the probe compound was 5 nM. Compound plates were centrifuged for 1 minute at 250×g for 1 minute and immediately read on a PheraStar FSX (fitted with 384-well aperture spoon and 590 675 675 FP optic module). The gain and focus were adjusted before each plate was read so that the polarisation of a no enzyme control (column 24) was equal to 35 mP. Data were normalised against the no inhibitor controls (column 23) and no enzyme controls (column 24).
# [2] = target: T2, recombinant N-terminal PMS2 (residues 1-365) (Homo sapiens, UniProt P54278); assay: Fluorescence Polarisation Assay for PMS2; type: binding; conditions: fluorescence polarisation probe displacement; 10 nM N-terminal PMS2, 5 nM probe compound; read-out: PMS2 IC50
# T2 construct: recombinant N-terminal PMS2 (residues 1-365)
# T2 sequence (P54278 1-365): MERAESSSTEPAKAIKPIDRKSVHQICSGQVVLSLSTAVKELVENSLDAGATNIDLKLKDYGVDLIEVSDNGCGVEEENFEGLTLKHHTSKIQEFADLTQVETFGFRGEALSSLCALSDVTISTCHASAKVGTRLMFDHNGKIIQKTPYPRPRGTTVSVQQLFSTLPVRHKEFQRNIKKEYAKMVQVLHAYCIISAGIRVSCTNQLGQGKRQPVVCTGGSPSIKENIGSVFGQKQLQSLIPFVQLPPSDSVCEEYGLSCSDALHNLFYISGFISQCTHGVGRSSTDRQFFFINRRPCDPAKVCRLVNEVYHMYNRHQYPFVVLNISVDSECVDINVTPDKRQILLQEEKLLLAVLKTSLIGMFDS
# Description: Fluorescence Polarisation Assay for PMS2
# For single point screening, test compounds were added to wells in columns 1-22 whilst DMSO was added to wells in columns 23 and 24 in order to normalise the plate. For potency determination, serial dilutions of test compounds were added to wells in columns 3-22 and DMSO volume was normalised across the plate.
# 20 μL assay buffer was added to all wells in columns 1 and 24 (column 24 only for single point screening) using a MultiDrop Combi (ThermoFisher). Plates were centrifuged for 1 minute at 250×g and were incubated at room temperature for 30 minutes prior to the addition of 20 μL of 2× (20 nM) of 5-((5-(4-((2-(2,4-dihydroxy-5-isopropylbenzoyl)isoindolin-5-yl)methyl)piperazin-1-yl)pentyl)carbamoyl)-2-(6-(dimethylamino)-3-(dimethyliminio)-3H-xanthen-9-yl)benzoate (referred to hereinafter as “probe compound”) in assay buffer (prepared from a 100 μM DMSO stock) with a MultiDrop Combi (ThermoFisher). The final concentration of N-terminal PMS2 was 10 nM and the final concentration of probe compound was 5 nM.
# Compound plates were centrifuged for 1 minute at 250×g for 1 minute and were incubated at room temperature for 1 hour before being read on a PheraStar FSX (fitted with 384-well aperture spoon and 540 590 590 FP optic module). The gain and focus were adjusted before each plate was read so that the polarisation of a no enzyme control (column 24) was equal to 35 mP. Data were normalised against the no inhibitor controls (column 23) and no enzyme controls (column 24).
SMILES,IC50 [1] [nM],IC50 [2] [nM]
"O=C(c1c(O)cc(O)cc1OCc1ccccc1)N1CCc2cccc(N[C@H]3CCOC3)c2C1 [Example 2, (S)-(2-(Benzyloxy)-4,6-dihydroxyphenyl)(8-((tetrahydrofuran-3-yl)amino)-3,4-dihydro-isoquinolin-2(1H)-yl)methanone]",< 1000,1000 to 10000
"CC(=O)N1CCC(Nc2cccc3c2CN(C(=O)c2c(O)cc(O)cc2OCc2ccccc2)CC3)CC1 [Example 69, 1-(4-((2-(2-(Benzyloxy)-4,6-dihydroxybenzoyl)-1,2,3,4-tetrahydroisoquinolin-8-yl)amino)piperidin-1-yl)ethan-1-one]",1000 to 10000,> 10000
"O=C(c1c(O)cc(O)cc1OCc1ccccc1)N1Cc2cccc(NC3COC3)c2C1 [Example 7, (2-(Benzyloxy)-4,6-dihydroxyphenyl)(4-(oxetan-3-ylamino)isoindolin-2-yl)methanone]",< 1000,1000 to 10000
"CN1CC(Nc2cccc3c2CN(C(=O)c2c(O)cc(O)cc2OCc2ccccc2)CC3)CC1=O (stereo not shown) [Example 42, 4-((2-(2-(Benzyloxy)-4,6-dihydroxybenzoyl)-1,2,3,4-tetrahydroisoquinolin-8-yl)amino)-1-methylpyrrolidin-2-one]",< 1000,< 1000
"O=C(c1c(O)cc(O)cc1OCc1ccccc1)N1CCc2nccc(N[C@H]3CCOC3)c2C1 [Example 63, (S)-(2-(Benzyloxy)-4,6-dihydroxyphenyl)(4-((tetrahydrofuran-3-yl)amino)-7,8-dihydro-1,6-naphthyridin-6(5H)-yl)methanone]",< 1000,1000 to 10000
"O=C(c1c(O)cc(O)cc1OCc1ccccc1)N1CCc2cccc(NC3CCS(=O)(=O)C3)c2C1 (single isomer, unassigned) [Example 147a, (2-(Benzyloxy)-4,6-dihydroxyphenyl)(8-((1,1-dioxidotetrahydrothiophen-3-yl)amino)-3,4-dihydroisoquinolin-2(1H)-yl)methanone]",< 1000,> 10000
"CN(C)C(=O)N1CCC(Nc2cccc3c2CN(C(=O)c2c(O)cc(O)cc2OCc2ccccc2)CC3)C1 (stereo not shown) [Example 113, 3-((2-(2-(Benzyloxy)-4,6-dihydroxybenzoyl)-1,2,3,4-tetrahydroisoquinolin-8-yl)amino)-N,N-dimethylpyrrolidine-1-carboxamide]",< 1000,> 10000
"CN(C)C(=O)c1cc2c(c(N[C@@H]3CCOC3)c1)CN(C(=O)c1c(O)cc(O)cc1OCc1ccccc1)CC2 [Example 129, (R)-2-(2-(Benzyloxy)-4,6-dihydroxybenzoyl)-N,N-dimethyl-8-((tetrahydrofuran-3-yl)amino)-1,2,3,4-tetrahydroisoquinoline-6-carboxamide]",< 1000,1000 to 10000
"O=C(c1c(O)cc(O)cc1OCc1ccccc1)N1Cc2ccc(CN3CCOCC3)cc2C1 [Example 12, (2-(Benzyloxy)-4,6-dihydroxyphenyl)(5-(morpholinomethyl)isoindolin-2-yl)methanone]",< 1000,< 1000
"CN1CC(Nc2cccc3c2CN(C(=O)c2c(O)cc(O)cc2OCc2ccccc2)CC3)CC1=O (single isomer, unassigned) [Example 62, 4-((2-(2-(Benzyloxy)-4,6-dihydroxybenzoyl)-1,2,3,4-tetrahydroisoquinolin-8-yl)amino)-1-methylpyrrolidin-2-one]",< 1000,< 1000
"N#CC1CN(c2cccc3c2CN(C(=O)c2c(O)cc(O)cc2OCc2ccccc2)C3)C1 [Example 92, 1-(2-(2-(Benzyloxy)-4,6-dihydroxybenzoyl)isoindolin-4-yl)azetidine-3-carbonitrile]",1000 to 10000,1000 to 10000
"O=C(c1c(O)cc(O)cc1OCc1ccccc1)N1Cc2ccc(CNC3CCOC3)cc2C1 (stereo not shown) [Example 145, (2-(Benzyloxy)-4,6-dihydroxyphenyl)(5-(((tetrahydrofuran-3-yl)amino)methyl)isoindolin-2-yl)methanone]",< 1000,< 1000
"CC(=O)Nc1cccc2c1CN(C(=O)c1c(O)cc(O)cc1OCc1ccccc1)CC2 [Example 101, N-(2-(2-(benzyloxy)-4,6-dihydroxybenzoyl)-1,2,3,4-tetrahydroisoquinolin-8-yl)acetamide]",1000 to 10000,1000 to 10000
"CN1CCC(Nc2cccc3c2CN(C(=O)c2c(O)cc(O)cc2OCc2ccccc2)CC3)CC1 [Example 77, (2-(Benzyloxy)-4,6-dihydroxyphenyl)(8-((1-methylpiperidin-4-yl)amino)-3,4-dihydroisoquinolin-2(1H)-yl)methanone]",> 10000,> 10000
"Nc1cccc2c1CN(C(=O)c1c(O)cc(O)cc1OCc1ccccc1)CC2 [Example 100, 8-Amino-3,4-dihydroisoquinolin-2(1H)-yl(2-(benzyloxy)-4,6-dihydroxyphenyl)methanone]",1000 to 10000,1000 to 10000
"O=C(c1c(O)cc(O)cc1OCc1ccccc1)N1Cc2cccc(NC34CCC(C3)OC4)c2C1 (stereo not shown) [Example 53, (4-((2-Oxabicyclo[2.2.1]heptan-4-yl)amino)isoindolin-2-yl)(2-(benzyloxy)-4,6-dihydroxyphenyl)methanone]",< 1000,1000 to 10000
"O=C(c1c(O)cc(O)cc1OCc1ccccn1)N1CCc2cccc(N[C@H]3CCOC3)c2C1 [Example 55, (S)-(2,4-Dihydroxy-6-(pyridin-2-ylmethoxy)phenyl)(8-((tetrahydrofuran-3-yl)amino)-3,4-dihydroisoquinolin-2(1H)-yl)methanone]",< 1000,1000 to 10000
"CC(=O)N1CC[C@H](Nc2cccc3c2CN(C(=O)c2c(O)cc(O)cc2OCc2ccccc2)CC3)C1 [Example 65, (S)-1-(3-((2-(2-(Benzyloxy)-4,6-dihydroxybenzoyl)-1,2,3,4-tetrahydroisoquinolin-8-yl)amino)pyrrolidin-1-yl)ethan-1-one]",< 1000,> 10000
"CN1CCC(Oc2cc3c(c(N[C@H]4CCOC4)c2)CN(C(=O)c2c(O)cc(O)cc2OCc2ccccc2)CC3)CC1 [Example 139, (S)-(2-(Benzyloxy)-4,6-dihydroxyphenyl)(6-((1-methylpiperidin-4-yl)oxy)-8-((tetrahydrofuran-3-yl)amino)-3,4-dihydroisoquinolin-2(1H)-yl)methanone]",< 1000,< 1000
"Cn1cc(Nc2cccc3c2CN(C(=O)c2c(O)cc(O)cc2OCc2ccccc2)CC3)cn1 [Example 117, (2-(Benzyloxy)-4,6-dihydroxyphenyl)(8-((1-methyl-1H-pyrazol-4-yl)amino)-3,4-dihydroisoquinolin-2(1H)-yl)methanone]",< 1000,1000 to 10000
